Test results from patent US9622997B2, “Methods for treating insomnia” (Lynn Health Science Institute, Inc., priority 2012, dated 2017).
Marks after values point to notes of the source that are not given here.

Assays:
[1] = baclofen vs. placebo; cited from earlier work
[2] = tested on: healthy subjects subjected to a transient insomnia protocol; experiment: Transient insomnia protocol (2 hour phase advance), double blind cross-over, overnight PSG and morning self-report; format: in vivo, human
Text: Twenty-four (24) healthy subjects aged 18-65 years (inclusive) with no insomnia were recruited for this study. […] Individuals were also excluded if they had excessive daytime sleepiness indicated by an Epworth Sleepiness Score (ESS) of >9 or a chronic sleep disturbance indicated by a Pittsburgh Sleep Questionnaire Inventory (PSQI) score of >5. Shift workers or subjects with irregular sleep schedules were excluded. Women of child-bearing potential who used medically acceptable methods of contraception were allowed to participate. Subjects were excluded if they had any of the following: BMI≧30; symptoms of gastroesophageal reflux such as heartburn on a regular basis; history of allergic reaction or hyper-sensitivity to benzodiazepines or CNS depressants; or evidence of any clinically significant medical abnormality or chronic disease indicated on laboratory screen or physical exam. Subjects were also excluded if they had any of the following: a history of alcohol or drug abuse; consume >2 alcoholic beverages on a single day and >14 beverages weekly; or >5 cigarettes a day and could not forego smoking for up to 14 hours while in the sleep lab. Participants abstained from over-the-counter medications within 7 days of the polysomnographic (hereinafter “PSG”) evaluation (except accepted birth control medication, NSAIDS/acetaminophen for infrequent pain not considered clinically significant). Participants abstained from alcohol for 24 hours and caffeine for 6 hours prior to each PSG evaluation. Eligible participants were required to report normal sleep patterns during the week before each PSG defined as a bedtime between 21:00 and 24:00 on at least 5 of 7 consecutive nights, with reported sleep duration between 7-9 hours, and no more than 2 naps a week.
The present study was a single-site study approved by Aspire Institutional Review Board. The study design was a double blind cross-over study. Subjects gave written informed consent prior to any study-related procedures. The study consisted of a screening session and two overnight PSGs. The treatments consisted of baclofen 20 mg and placebo. The screening session consisted of a medical screening visit to determine eligibility and safety for each subject. Eligible subjects were randomized into two treatment sequences based on a random permutation algorithm. One treatment sequence received baclofen 20 mg on the night of the first PSG, then placebo on the night of the second PSG. The other treatment sequence received placebo on the night of the first PSG, then baclofen 20 mg on the night of the second PSG. Subjects were given a 7 day sleep diary to complete immediately prior to the first sleep study. Subjects were given a second 7 day sleep diary to complete immediately prior to the second sleep study. Lights out was determined as two hours earlier than the subject's median habitual bedtime indicated in the diary prior to each PSG. Study drug (baclofen 20 mg or placebo) was administered 90 minutes prior to lights out.
On the PSG nights, respiratory effort and airflow, oxygen saturation, leg and chin EMGs were recorded in addition to the routine PSG measures to exclude subjects with sleep-related breathing disorders and periodic limb movement disorder. […] PSG measures consisted of the following: wake after sleep onset (WASO), total sleep time (TST), sleep onset latency (SOL), sleep efficiency (SE), percent sleep stage 1, percent sleep stage 2, percent sleep stages 3 and 4 combined, percent sleep REM. Self-report measures consisted of the following: subjective TST (sTST), subjective SOL (sSOL), subjective number of awakenings from sleep (sNAS), subjective sleep quality (sSQ). All PSGs were analyzed by one of the authors blinded to the treatment groups. […]

[3] = tested on: healthy subjects subjected to a transient insomnia protocol; experiment: Next day residual effects (DSST, SCT, VAS) and adverse events after PSG night; format: in vivo, human
Procedure: Next day residual effects were assessed by a comparing pre- and post-PSG Digit Symbol Substitution Test (DSST; 90-s duration) and Symbol Copying Test (SCT; 90-s duration). Hangover effect of baclofen 20 mg was assessed by comparing a Visual Analog Scale (VAS) for sleepiness administered the morning after each PSG. DSST and SCT were administered prior to study medication provided 90 minutes before Lights Out. DSST, SCT, and VAS were conducted 30 minutes after Lights On in the order given. Subjects were contacted between 24-48 hours after each PSG to assess any side-effects or adverse events.
The primary outcome variables were WASO, TST, and SE. Secondary outcome variables were SOL, sTST, sSOL, and sNAS. Exploratory variables to assess residual effects were cognitive and visual analog test scores (DSST, SCT, and VAS). Objective PSG measures such as the percent of time in each sleep stage, subjective self-reports, and residual effects were analyzed using SPSS 11.0 (SPSS Inc., Chicago, Ill., USA). Paired samples t-tests were used to compare means between treatment groups for normally distributed dependent measures. Wilcoxon signed-rank tests were used to compare the medians between treatment groups for non-normally distributed dependent measures. Sample size determination was made based on previous findings in our laboratory from a study of the effect of baclofen in patients with nighttime reflux.

normal participants = conditions: acute dose 40 mg; cited from earlier work
[4] = PSG measure, percentage of TST, baclofen 20 mg
[5] = PSG measure, baclofen 20 mg 90 minutes prior to lights out, n=20
[6] = baclofen 20 mg vs placebo, not significant
[7] = baclofen 20 mg vs placebo, p < 0.01
[8] = baclofen 20 mg vs placebo, p < 0.05
[9] = self-report, morning questionnaire, baclofen 20 mg
[10] = baclofen 20 mg vs placebo, next day residual effects, 30 minutes after Lights On

## NCC(CC(=O)O)c1ccc(Cl)cc1 (stereo not shown) [Baclofen, 4-amino-3-(4-chlorophenyl)-butanoic acid]
[1]
  decrease in reflux events in other studies: ~40%
[2]; [4]
  REM: 24.1 ± 1.3%
  Stage 1: 2.3 ± 0.3%
  Stage 2: 58.9 ± 2.0%
  Stage 3/4: 14.7 ± 1.4%
[2]; [5]
  SE: 90.6 ± 1.2%
  SOL: 19.4 ± 3.8 min
  TST: 435.4 ± 5.8 min
  WASO: 25.6 ± 4.0 min
[2]; [6]
  SOL Absolute Change: -0.4 min
  sSOL Absolute Change: -1.0 min
  sTST Absolute Change: 0.3 h
[2]; baclofen 20 mg vs placebo, not significant (p=0.067)
  REM Absolute Change: 3.5%
[2]; baclofen 20 mg vs placebo, not significant (p=0.092)
  Stage 2 Absolute Change: −3.9%
[2]; baclofen 20 mg vs placebo, p < 0.001
  Stage 1 Absolute Change: −1.8*** %
[2]; [7]
  TST Absolute Change: 27.7** min
  sNAS Absolute Change: −1.3** #
[2]; [8]
  Stage 3/4 Absolute Change: 2.7* %
  WASO Absolute Change: −28.4* min
  sSQ Absolute Change: −0.5* scale 1-4
[2]; baclofen 20 mg vs zolpidem 10 mg (WASO 9.4 min, SE 3.7%), 2 hr phase advance
  baclofen data better than zolpidem (decrease in WASO, increase in SE): 2-4 fold
[2]; [9]
  sSOL: 25.0 ± 4.1 min
  sTST: 7.1 ± 0.2 h
[2]; self-report, number of awakenings, baclofen 20 mg
  sNAS: 2.4 ± 0.4
[2]; self-report, 1 = good, 2 = average, 3 = below average, 4 = poor, baclofen 20 mg
  sSQ: 1.9 ± 0.2 scale 1-4
[2]; ↑ increase compared to placebo, 20 mg, 2 hour phase-advance, current study
  TST: ↑ 27.7 min
[2]; ↓ decrease compared to placebo, NS, 20 mg, 2 hour phase-advance, current study
  SOL: ↓ 0.4^NS min
[2]; ↓ decrease compared to placebo, 20 mg, 2 hour phase-advance, current study
  wake after sleep onset (WASO), change vs placebo: ↓ 28.3 min
[3]; baclofen 20 mg vs placebo, morning after each PSG
  residual sleepiness testing, Visual Analog Scale (VAS): no significant differences between treatment conditions
[3]; [10]
  cognitive testing, Digit Symbol Substitution Test (DSST): no significant differences between treatment conditions
  cognitive testing, Symbol Copying Test (SCT): no significant differences between treatment conditions
[3]; baclofen 20 mg, contacted 24-48 hours after each PSG
  serious adverse events: No serious adverse events were reported
Normal participants
  ACT: no significant change
  postprandial reflux events: significant reduction
